Results: paper PMC12349913 (Biological & pharmaceutical bulletin, 2024)

Target: full-length Plk1 (Homo sapiens, UniProt P53350)
Assay: Fluorescence polarization
Conditions: FP assay, serially diluted full-length protein

Chain of full-length Plk1 (P53350 whole entry): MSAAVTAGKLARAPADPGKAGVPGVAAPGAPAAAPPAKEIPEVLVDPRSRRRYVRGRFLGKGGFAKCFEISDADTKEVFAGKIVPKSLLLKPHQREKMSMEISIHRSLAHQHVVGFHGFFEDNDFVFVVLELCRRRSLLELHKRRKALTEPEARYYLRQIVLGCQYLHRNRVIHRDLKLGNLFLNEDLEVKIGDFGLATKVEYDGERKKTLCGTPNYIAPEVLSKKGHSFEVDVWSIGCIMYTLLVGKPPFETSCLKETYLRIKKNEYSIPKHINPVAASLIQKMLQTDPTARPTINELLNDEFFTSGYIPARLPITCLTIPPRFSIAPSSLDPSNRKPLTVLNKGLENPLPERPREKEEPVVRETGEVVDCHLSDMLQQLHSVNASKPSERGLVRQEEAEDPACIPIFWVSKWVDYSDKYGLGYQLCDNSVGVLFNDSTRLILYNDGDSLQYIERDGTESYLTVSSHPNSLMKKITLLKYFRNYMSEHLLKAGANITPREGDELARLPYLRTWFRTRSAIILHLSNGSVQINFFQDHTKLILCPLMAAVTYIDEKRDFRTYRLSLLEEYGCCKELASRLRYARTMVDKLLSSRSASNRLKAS

5-carboxyfluorescein (5CF)-GPMQSpTPLNG-NH2 [5CF-GPMQSpTPLNG-NH2]
FP signal response to full-length Plk1: did not show significant FP signal enhancement
